Reference: patent US20130078185A1, “NITROIMIDAZOLE DERIVATIVES” (GE HEALTHCARE LIMITED, priority 2010, published 2013)
Values after ≈ are worked out from the molar mass of the structure shown. Like-named read-outs stand apart in the source and are kept apart here.

Columns and labels:
[1] = system: Mycobacterium tuberculosis strain H37Rv; experiment: microplate alamar blue assay (MABA) MIC; type: cell-based; settings: M. tuberculosis H37Rv, BACTEC 12B medium, MIC90 = 90% reduction in fluorescence relative to controls
Method: Screening was done to get MIC for M. tuberculosis using both the microplate alamar blue assay (MABA) and low-oxygen recovery assay (LORA).
The initial screen was conducted against Mycobacterium tuberculosis strain H37Rv (American Type Culture Collection number 27294) in BACTEC 12B medium (Becton-Dickinson) using the MABA. Compounds were tested in ten 2-fold dilutions, typically from 100 μg/mL to 0.19 μg/mL. The MIC90 is defined as the concentration effecting a reduction in fluorescence of 90% relative to controls. This value is determined from the dose-response curve using a curve-fitting program. Any MIC90 value of ≦10 μg/mL was considered “active” for antitubercular activity. 3(h) Method for Determining IC50

VERO cells = experiment: cells; type: cell-based, African green monkey (Cercopithecus aethiops); settings: Chlorocebus sabaeus

| Structure (SMILES) | MIC [1] | IC50 (VERO cells; Vero, 72 h) | IC50 (VERO cells; VERO cell cytotoxicity, 72 hours exposure, ATP viability readout, read-out: IC50) |
| --- | --- | --- | --- |
| C[C@]1(COc2ccccc2)Cn2cc([N+](=O)[O-])nc2O1 [Example 1, (R)-2-Methyl-6-nitro-2-(phenoxymethyl)-2,3-dihydroimidazo[2,1-b]oxazole] | 1.33 µg/mL (≈ 4.83 µM) | > 50 µg/mL | – |
| C[C@]1(COc2ccc(I)cc2)Cn2cc([N+](=O)[O-])nc2O1 [Example 2, (R)-2-((4-Iodophenoxy)methyl)-2-methyl-6-nitro-2,3-dihydroimidazo[2,1-b]oxazole] | < 0.195 µg/mL | – | > 50 µg/mL |
